Reference: ChEMBL document CHEMBL1138391, “Syntheses of hydroxy substituted 2-phenyl-naphthalenes as inhibitors of tyrosinase” (Bioorg Med Chem Lett, 2007)

The compounds below were run against T1, Tyrosinase (Agaricus bisporus, UniProt O42713).
T1 sequence (O42713 whole entry): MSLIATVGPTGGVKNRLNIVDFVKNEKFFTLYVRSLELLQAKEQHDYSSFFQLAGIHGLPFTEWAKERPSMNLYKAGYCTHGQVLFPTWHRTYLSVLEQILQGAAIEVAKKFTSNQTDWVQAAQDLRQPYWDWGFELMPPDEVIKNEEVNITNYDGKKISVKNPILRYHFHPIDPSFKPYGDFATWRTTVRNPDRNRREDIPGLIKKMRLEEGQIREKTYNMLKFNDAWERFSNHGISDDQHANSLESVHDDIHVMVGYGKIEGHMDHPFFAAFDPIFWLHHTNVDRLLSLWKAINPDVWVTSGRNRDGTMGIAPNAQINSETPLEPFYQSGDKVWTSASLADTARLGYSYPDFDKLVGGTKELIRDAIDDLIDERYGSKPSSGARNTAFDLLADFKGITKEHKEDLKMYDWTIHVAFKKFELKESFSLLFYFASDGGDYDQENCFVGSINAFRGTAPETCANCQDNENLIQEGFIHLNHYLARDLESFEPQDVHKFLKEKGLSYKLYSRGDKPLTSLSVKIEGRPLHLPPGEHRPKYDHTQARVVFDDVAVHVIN
Description: Inhibition of mushroom tyrosinase

IC50 [µM]	SMILES
16.5	Oc1cc(O)cc(-c2ccc3cc(O)ccc3c2)c1
0.49	Oc1cc(O)cc(-c2ccc3cc(O)cc(O)c3c2)c1
6.4	Oc1cccc(-c2ccc3cc(O)ccc3c2)c1
55.6	Oc1ccc(/C=C/c2cc(O)cc(O)c2)cc1 [RESVERATROL]
0.034	Oc1ccc(-c2ccc3cc(O)ccc3c2)c(O)c1
33.5	Oc1ccc(O)cc1 [HYDROQUINONE]
2.95	Oc1ccc2cc(-c3cc(O)c(O)c(O)c3)ccc2c1
